Key:
[1] = tested on: spontaneous pain-like behavior induced by PACAP intrathecal administration; test: Spontaneous pain-like behavior induced by PACAP intrathecal administration; type: in vivo, mouse; settings: simultaneous i.t. with PACAP (100 pmol), counted for 30 minutes
Procedure: When PACAP (100 pmol/5 L) is intrathecally administered to a mouse in a single dose (single i.t. injection), spontaneous pain-like behavior in which the mouse licks or bites the rear half of the body occurs about 5 minutes after the administration (and continues for several hours) (Ohnou et al. J. Pharmacol. Sci. 130, 194-203, 2016). […] Male ddY mice (6 to 12 weeks old) were used, and the behaviors were taken on video. The number of times of spontaneous pain-like behaviors for 30 minutes after the administration was counted.

[2] = Non Patent Literature 4; cited from earlier work
[3] = tested on: cold allodynia induced by oxaliplatin; test: Onset of cold allodynia induced by oxaliplatin, drug given around oxaliplatin administration; type: in vivo, mouse; settings: 10 mg/kg oral, 30 minutes before oxaliplatin or 3 administrations
Procedure: Oxaliplatin was dissolved in 5% glucose-containing saline and intraperitoneally administered at a dose of 2 mg/kg. Drug administration (oral administration) was performed 30 minutes before oxaliplatin administration (FIG. 7A); or 3 times: 30 minutes before oxaliplatin administration, 2.5 hours after the administration, and 5.5 hours after the administration (FIG. 7B). Male ddY mice (6 to 12 weeks old) were used. The axis of ordinates is the duration of the behavior of licking and paw waving after the application of an acetone drop (10 μL) to the footpad of a hind paw.

[4] = tested on: mechanical allodynia induced by spinal nerve injury; test: Spinal nerve ligation (SNL) model, i.t. administration on 14th day, mechanical allodynia; type: in vivo, mouse; settings: 100 pmol i.t. on 14th day after operation
Procedure: Male ddY mice (6 to 12 weeks old) were used, and the threshold to a mechanical stimulus was evaluated by the vonFrey test. Specifically, the 50% withdrawal reflex threshold (Threshold) was calculated in accordance with the method of Chaplan et al. (Chaplan et al., J. Neurosci. Meth. 53, 55-63, 1994). Each compound was dissolved in 99.7% DMSO, and then the resulting solution was diluted with an artificial cerebrospinal fluid for preparation (final concentration of DMSO was 0.2%).
Spinal nerve ligation (SNL) models in which the fourth lumbar cord spinal nerves of male ddY (6 to 12 weeks old) were ligated with silk thread were used. The i.t. administration of a solvent (VEH: 10% DMSO-containing saline), PA-8, the compound 2j or the compound 2o (FIG. 9A), or PA-9 or the compound 3d (FIG. 9B) was performed on the 14th day after the operation. The method of causing a mechanical stimulus is the same as that of Example 5, and data were acquired for 24 hours after i.t. administration over time.

[5] = molecular target: T1, mouse PAC receptor-expressing CHO cell (PAC1/CHO cell) (Mus musculus, UniProt P70205); test: CREB phosphorylation by PACAP stimulus, Western blot, PAC1/CHO cell; type: cell-based
T1 construct: expressed in transfected cells; host or cells: CHO cells
T1 sequence (P70205 21-496): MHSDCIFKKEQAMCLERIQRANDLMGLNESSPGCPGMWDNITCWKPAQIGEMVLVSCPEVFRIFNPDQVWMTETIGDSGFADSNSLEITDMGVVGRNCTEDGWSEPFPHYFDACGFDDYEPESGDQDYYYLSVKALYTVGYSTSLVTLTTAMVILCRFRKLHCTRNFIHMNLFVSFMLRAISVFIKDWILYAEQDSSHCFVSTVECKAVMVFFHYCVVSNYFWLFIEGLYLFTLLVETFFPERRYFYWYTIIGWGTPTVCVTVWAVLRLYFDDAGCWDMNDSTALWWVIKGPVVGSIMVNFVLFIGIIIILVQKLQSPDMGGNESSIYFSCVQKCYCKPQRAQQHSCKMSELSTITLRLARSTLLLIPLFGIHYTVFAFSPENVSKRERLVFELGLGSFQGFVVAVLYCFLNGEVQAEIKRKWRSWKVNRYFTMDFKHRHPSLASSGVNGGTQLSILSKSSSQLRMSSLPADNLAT
Procedure: (§1) The effect of each compound on the phosphorylation of CREB (cAMP-responsive element-binding protein) produced by a PACAP stimulus was examined by Western blot analysis using an anti-phosphorylated CREB (pCREB) antibody with a mouse PAC receptor-expressing CHO cell (PAC1/CHO cell) and a mouse VPAC1 receptor-expressing CHO cell (VPAC1/CHO cell).
(§2) Specifically, treatment with a compound (PA-8, PA-9, compounds 2j, 20 and 3d) at 10 μM to 10 nM or a solvent therefor (VEH: 0.1% DMSO-containing phosphate buffer solution) was performed for 30 minutes, 1 nM PACAP was then added, and protein was recovered within 30 minutes after a PACAP stimulus.

[6] = molecular target: T2, mouse VPAC1 receptor-expressing CHO cell (VPAC1/CHO cell) (Mus musculus, UniProt P97751); test: CREB phosphorylation by PACAP stimulus, Western blot, VPAC1/CHO cell; type: cell-based; settings: compound 10 μM to 10 nM
T2 construct: expressed in transfected cells; host or cells: CHO cells
T2 sequence (P97751 31-459): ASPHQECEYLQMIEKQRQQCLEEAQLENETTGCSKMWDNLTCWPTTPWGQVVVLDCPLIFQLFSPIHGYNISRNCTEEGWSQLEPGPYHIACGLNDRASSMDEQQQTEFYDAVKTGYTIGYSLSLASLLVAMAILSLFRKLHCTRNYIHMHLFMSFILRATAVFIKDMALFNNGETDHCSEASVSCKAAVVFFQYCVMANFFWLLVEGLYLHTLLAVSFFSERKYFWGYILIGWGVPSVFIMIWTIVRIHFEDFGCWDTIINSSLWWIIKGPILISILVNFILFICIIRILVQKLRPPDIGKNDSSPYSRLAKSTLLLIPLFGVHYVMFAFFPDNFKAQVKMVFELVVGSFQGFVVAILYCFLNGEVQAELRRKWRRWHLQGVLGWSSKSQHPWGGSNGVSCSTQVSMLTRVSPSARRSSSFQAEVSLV
Procedure: as §1, §2

C=CCOc1ccc(C2CC(=O)Nc3nc(N)[nH]c(=O)c32)cc1OC (centres unmarked) [PA-8, reference compound]
suppression of PACAP-induced spontaneous pain-like behavior ([1]; 10 pmol): suppressed the PACAP response significantly
suppression of PACAP-induced spontaneous pain-like behavior ([1]; 100 pmol): suppressed the PACAP response significantly
analgesic effect [2]: have analgesic effect
suppression of the onset of cold allodynia by oxaliplatin [3]: suppressed the onset of cold allodynia by oxaliplatin significantly
anti-mechanical allodynia effect [4]: suppressed the onset of mechanical allodynia significantly
suppression of CREB phosphorylation by PACAP (1 nM) ([5]; PAC1/CHO cell, compound 10 μM to 10 nM, 30 minutes before 1 nM PACAP): suppressed CREB phosphorylation by PACAP (1 nM)
receptor selectivity (PAC1 versus VPAC1) ([5]; concluded from PAC1/CHO and VPAC1/CHO data): PAC1 receptor selective antagonistic drug
suppression of CREB phosphorylation by PACAP (1 nM) [6]: did not suppress CREB phosphorylation by PACAP (1 nM)
